The experiment concerns the target T1, hmGlu5 (Homo sapiens, UniProt P41594).
T1 construct: expressed in transfected cells; host or cells: HEK 293A
The experiment can be described thus: mGlu5 Ca2+ flux assay in HEK 293A cells (negative allosteric modulation of glutamate EC80 response). To be noted: for remaining activity at 30 µM: HEK293-A, read-out: hmGlu5 NAM Emin (%); for IC50: HEK 293A cells, Ca2+ flux, glutamate EC80, >10,000 = decrease without plateau, read-out: hmGlu5 NAM IC50. Type of experiment: cell-based. On the procedure: HEK 293A cells stably expressing either rat or human mGlu5 were plated in black-walled, clear-bottomed, poly-D-lysine coated 384-well plates in 20 μL of assay medium (DMEM containing 10% dialyzed FBS, 20 mM HEPES, 100 units/mL penicillin/streptomycin plus 250 ng/mL Fungizone, and 1 mM sodium pyruvate) at a density of 20K cells/well. The cells were grown overnight at 37° C. in the presence of 5% CO2. The next day, medium was removed and the cells incubated with 20 μL of 2.3 μM Fluo-4, AM prepared as a 2.3 mM stock in DMSO and mixed in a 1:1 ratio with 10% (w/v) pluronic acid F-127 and diluted in assay buffer (Hank's balanced salt solution, 20 mM HEPES, and 2.5 mM probenecid) for 45 minutes at 37° C. Dye was removed, 20 μL of assay buffer was added, and the plate was incubated for 5 minutes at room temperature.
Ca^2+ flux was measured using the Functional Drug Screening System (FDSS7000, Hamamatsu, Japan). After establishment of a fluorescence baseline for about 3 seconds, the compounds of the present invention were added to the cells, and the response in cells was measured. 2.3 minutes later an EC20 concentration of the mGlu5 receptor agonist glutamate was added to the cells, and the response of the cells was measured for 1.9 minutes; an EC80 concentration of agonist was added and readings taken for an additional 1.7 minutes. All test compounds were dissolved and diluted to a concentration of 10 mM in 100% DMSO. Compounds were then serially diluted 1:3 in DMSO into 10 point concentration response curves, transferred to daughter plates, and further diluted into assay buffer to a 2× stock. Calcium fluorescence measures were recorded as fold over basal fluorescence; raw data was then normalized to the maximal response to glutamate. Antagonism of the agonist response of the mGlu5 receptor in the present invention was observed as a decrease in response to nearly maximal concentrations of glutamate in the presence of compound compared to the response to glutamate in the absence of compound.
The raw data file containing all time points was used as the data source in the analysis template. This was saved by the FDSS as a tab-delimited text file. Data were normalized using a static ratio function (F/F0) for each measurement of the total 360 values per well divided by each well's initial value. Data were then reduced to peak amplitudes (Max−Initial Min) using a time range that starts approximately 3 seconds prior to the glutamate EC20/EC80 addition and continues for approximately 90-120 seconds. This is sufficient time to capture the peak amplitude of the cellular calcium response. Individual amplitudes were expressed as % EMax by multiplying each amplitude by 100 and then dividing the product by the mean of the amplitudes derived from the glutamate ECMax-treated wells. IC50 values for test compounds were generated by fitting the normalized values versus the log of the test compound concentration (in mol/L) using a 4 parameter logistic equation where none of the parameters were fixed. Each of the three values collected at each concentration of test compound were weighted evenly.
For NAMs with a CRC that plateaus above 10% Glu Max, the IC50 values are reported, the compound is designated a “partial NAM” and the % Glu Max is reported. […] Compounds without measurable activity are designated as “>30,000 nM” since the top concentration of compound tested in the assay is 30 μM. […]

Like-named read-outs stand apart in the source and are kept apart here.

T1 sequence (P41594 21-1212): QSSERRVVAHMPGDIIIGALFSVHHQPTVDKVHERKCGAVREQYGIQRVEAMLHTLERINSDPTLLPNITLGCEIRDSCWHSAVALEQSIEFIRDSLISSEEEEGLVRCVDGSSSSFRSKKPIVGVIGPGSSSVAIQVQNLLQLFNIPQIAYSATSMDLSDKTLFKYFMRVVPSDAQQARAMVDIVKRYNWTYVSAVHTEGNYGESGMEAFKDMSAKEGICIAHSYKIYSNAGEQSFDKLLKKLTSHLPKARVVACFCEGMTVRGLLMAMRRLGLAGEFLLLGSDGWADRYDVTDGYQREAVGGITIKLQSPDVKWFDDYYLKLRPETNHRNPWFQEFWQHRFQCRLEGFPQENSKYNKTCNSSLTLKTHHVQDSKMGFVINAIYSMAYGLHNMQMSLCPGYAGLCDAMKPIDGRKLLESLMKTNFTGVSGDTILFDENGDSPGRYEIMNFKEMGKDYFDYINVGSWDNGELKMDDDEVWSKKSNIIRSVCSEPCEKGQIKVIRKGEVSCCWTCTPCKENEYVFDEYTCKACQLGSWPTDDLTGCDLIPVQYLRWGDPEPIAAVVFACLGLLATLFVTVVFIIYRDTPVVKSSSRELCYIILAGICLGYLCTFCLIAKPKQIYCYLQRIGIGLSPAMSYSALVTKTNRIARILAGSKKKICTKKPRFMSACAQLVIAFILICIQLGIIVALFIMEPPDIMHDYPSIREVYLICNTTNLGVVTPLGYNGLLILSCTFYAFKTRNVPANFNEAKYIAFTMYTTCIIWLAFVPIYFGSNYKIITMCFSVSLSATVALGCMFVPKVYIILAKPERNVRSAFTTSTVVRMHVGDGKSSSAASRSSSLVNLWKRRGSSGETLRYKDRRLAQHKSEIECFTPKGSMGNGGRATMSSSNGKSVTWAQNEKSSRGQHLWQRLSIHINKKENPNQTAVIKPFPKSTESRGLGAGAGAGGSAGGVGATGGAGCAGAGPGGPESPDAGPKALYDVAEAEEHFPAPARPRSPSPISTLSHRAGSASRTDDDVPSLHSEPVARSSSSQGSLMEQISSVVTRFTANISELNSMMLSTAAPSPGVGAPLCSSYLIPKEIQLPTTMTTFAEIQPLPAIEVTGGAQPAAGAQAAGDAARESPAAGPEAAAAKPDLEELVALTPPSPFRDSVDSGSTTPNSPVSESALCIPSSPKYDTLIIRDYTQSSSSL

Consider `Cc1nc(-c2noc(-c3ccc(F)cc3)n2)cc(-c2cncc(F)c2)c1F` [Compound 48, 3-(5,5′-difluoro-6′-methyl-[3,4′-bipyridin]-2′-yl)-5-(4-fluorophenyl)-1,2,4-oxadiazole], for which the IC50 (as a rule, the concentration that gives 50% inhibition) is 81 nM. For the same compound, under “% Glu max at 30 μM”, the remaining activity at 30 µM stood at 3%.
The matching figures for `Cc1nc(-c2noc(-c3ccc(F)cc3F)n2)cc(-c2cncc(F)c2)c1F` [Compound 49, 3-(5,5′-difluoro-6′-methyl-[3,4′-bipyridin]-2′-yl)-5-(2,4-difluorophenyl)-1,2,4-oxadiazole]: 624 nM and 3%.
On to `Cc1nc(-c2noc(-c3cccnc3)n2)cc(-c2cncc(F)c2)c1F` [Compound 50, 3-(5,5′-difluoro-6′-methyl-[3,4′-bipyridin]-2′-yl)-5-(pyridin-3-yl)-1,2,4-oxadiazole], for which the IC50 was 1560 nM. In addition, the remaining activity at 30 µM (% Glu max at 30 μM) came to 34%.
For the compound `Cc1nc(-c2noc(-c3ccncc3)n2)cc(-c2cncc(F)c2)c1F` [Compound 51, 3-(5,5′-difluoro-6′-methyl-[3,4′-bipyridin]-2′-yl)-5-(pyridin-4-yl)-1,2,4-oxadiazole], the IC50 turned out to be 1070 nM. In addition, under “% Glu max at 30 μM”, the remaining activity at 30 µM was determined as 12%.
In the same order, the values of `Cc1nc(-c2noc(-c3cscn3)n2)cc(-c2cncc(F)c2)c1F` [Compound 52, 3-(5,5′-difluoro-6′-methyl-[3,4′-bipyridin]-2′-yl)-5-(thiazol-4-yl)-1,2,4-oxadiazole] are greater than 10000 nM and 18%.
The matching figures for `Cc1nc(-c2nc(-c3cscn3)no2)cc(-c2cncc(F)c2)c1F` [Compound 53, 5-(5,5′-difluoro-6′-methyl-[3,4′-bipyridin]-2′-yl)-3-(thiazol-4-yl)-1,2,4-oxadiazole]: 481 nM and 23%.
Consider `COCCOc1c(-c2cncc(F)c2)cc(-c2noc(-c3ccc(F)cn3)n2)nc1C` [Compound 54, 3-(5-fluoro-5′-(2-methoxyethoxy)-6′-methyl-[3,4′-bipyridin]-2′-yl)-5-(5-fluoropyridin-2-yl)-1,2,4-oxadiazole], for which the IC50 came to 562 nM. For the same compound, the remaining activity at 30 µM (% Glu max at 30 μM) is 3%.
As to `Cc1cc(-c2cncc(F)c2)cc(-c2noc(-c3ccc(F)cn3)n2)n1` [Compound 55, 3-(5-fluoro-6′-methyl-[3,4′-bipyridin]-2′-yl)-5-(5-fluoropyridin-2-yl)-1,2,4-oxadiazole], the IC50 was 190 nM. For the same compound, where the note is “% Glu max at 30 μM”, the remaining activity at 30 µM worked out at 2%.
In the same order, the values of `Cc1ccncc1-c1cc(-c2noc(Cc3ccnn3C)n2)nc(C)c1F` [Compound 56, 3-(5′-fluoro-4,6′-dimethyl-[3,4′-bipyridin]-2′-yl)-5-((1-methyl-1H-pyrazol-5-yl)methyl)-1,2,4-oxadiazole] are greater than 10000 nM and 50%.
For `Cc1ccc(-c2nnc(-c3cc(-c4cncc(F)c4)c(F)c(C)n3)o2)nc1` [Compound 57, 2-(5,5′-difluoro-6′-methyl-[3,4′-bipyridin]-2′-yl)-5-(5-methylpyridin-2-yl)-1,3,4-oxadiazole], the remaining activity at 30 µM is 4% and the IC50 came to 1080 nM.
In the same order, the values of `Cc1cccc(-c2nnc(-c3cc(-c4cncc(F)c4)c(F)c(C)n3)o2)n1` [Compound 58, 2-(5,5′-difluoro-6′-methyl-[3,4′-bipyridin]-2′-yl)-5-(6-methylpyridin-2-yl)-1,3,4-oxadiazole] are 31% and greater than 10000 nM.
With `Cc1nc(-c2nc(-c3ccc(F)cn3)no2)cc(-c2cncc(F)c2)c1F` [Compound 59, 5-(5,5′-difluoro-6′-methyl-[3,4′-bipyridin]-2′-yl)-3-(5-fluoropyridin-2-yl)-1,2,4-oxadiazole], the IC50 came out at 51 nM. For the setting “% Glu max at 30 μM”, the remaining activity at 30 µM amounted to 4%.
The matching figures for `Cc1ccncc1-c1cc(-c2noc(-c3ccc(F)cn3)n2)nc(C(F)F)c1` [Compound 60, 3-(6′-(difluoromethyl)-4-methyl-[3,4′-bipyridin]-2′-yl)-5-(5-fluoropyridin-2-yl)-1,2,4-oxadiazole]: 187 nM and 4%.

The values above are taken from US20250026743A1, “HETEROARYL-LINKED ANALOGS AS MGLU5 NEGATIVE ALLOSTERIC MODULATORS AND METHODS OF MAKING AND USING THE SAME” (Vanderbilt University, priority 2021, published 2025).
